Laboratory results from US12053452B2 (priority 2021, dated 2024).

Experiments:
Format in all cases: in vivo
BTBR mice [1] = assay: Social preference procedure: compartment entries (proxy for locomotor stimulant effects), BTBR
Procedure: (§1) This assay was conducted in adult male C57 and BTBR mice (n=6 per group) in a dedicated conditioning room where ambient light, sound, and human contact were tightly controlled. Social preference chambers consist of two polycarbonate boxes (13.5 cm wide×22.5 cm tall×31.0 cm deep), floored with rough-textured black ABS plastic, and connected to one another by a 1.25″ PVC T-junction. An infrared photobeam emitter/detector array is mounted at each intersection of the T-junction and each preference compartment, and as a mouse traversed the apparatus, it would break the photobeam upon entry to or exit from each preference compartment. Beam breaks started or stopped a counter on an interfaced computer, allowing automated collection of time spent in each compartment. At the end of each test, data were reported as time (in seconds) spent in each compartment, the number of entries into each compartment, and the average time spent in each compartment following an entry. Social preference tests were conducted in an iterative manner, with each test subject completing four distinct phases as described below. Between testing sessions, chambers were sanitized by wiping the insides with a disinfectant product provided by the UAMS Department of Laboratory Animal Medicine. At the end of the week (upon completion of all phases of the procedure), each apparatus was disassembled and all parts were sanitized. No food or water were available during social preference sessions, but were available in the home cage immediately afterwards.
(§2) Quantification of total entries into the preference compartments provided a proxy measurement for locomotor stimulant effects of the various doses of the various test drugs. This established a limit to the drug doses that can be tested in the social preference procedure, as induction of locomotor stimulant effects confounds preference assessments (because mice stop attending to the social stimuli in each compartment and instead spend their time engaged in locomotor behavior.) Motor activity varied across the distinct phases of social preference testing, in part because the habituation session is twice as long (30 minutes) as the novelty, sociability, and social novelty tests (15 minutes each), but also because mice emitted high levels of exploratory behavior in novel environments. Thus, as familiarity with the test apparatus increased over successive exposures to the chambers, the number of entries decreased.
(§3) (Note that entries were collected for every test, but drug effects on entries during earlier phases may be less reliable due to the confounding influence of changing familiarity with the apparatus across phases.)

C57 mice [2] = assay: Novelty preference test, C57
Procedure: as §1
A single novelty preference session occurred the day after the habituation test, where one compartment contained an empty wire mesh cup and the other compartment contained an identical wire mesh cup with a novel dummy mouse inside. The position of the dummy mouse (left or right compartment) was counterbalanced across subjects. Dummy mice were constructed from 2.5″ lengths of white ¾″ PVC pipe, with a zip tie attached to one end (to mimic a tail) and two red dots drawn on the other end (to mimic eyes.) During this session, mice were weighed, administered an injection, and returned to their home cage for a 30 min pretreatment period. Mice were then introduced into the T-junction and allowed to explore both preference compartments for 15 minutes. These tests were conducted as a procedural control to ensure that any observed drug effects were not simply due to enhancement of the innate novelty preference of mice. Novelty preference sessions always occurred on Tuesdays or Wednesdays to prevent any weekend testing.

BTBR mice [3] = assay: Social novelty preference test, BTBR (autism spectrum disorder model); conditions: BTBR mice
Procedure: as §1
A single social novelty preference session occurred the day after the sociability test, where one compartment contained a wire mesh cup with the same NIH Swiss mouse from the previous day inside (referred to now as the “familiar” mouse) while the other compartment contained a new male NIH Swiss stranger mouse inside the cup which previously contained the dummy mouse during the sociability test. […]

C57 mice [4] = assay: Radiotelemetry of core temperature, C57
Procedure: The radiotelemetry assay was conducted in adult male C57 and BTBR mice (n=6 per group) in a dedicated testing room where ambient light, sound, and human contact were tightly controlled.
Prior to surgical implantation of radiotelemetry probes, mice received 3 mg/kg meloxicam (IP), and anesthesia was induced with 4% inhaled isoflurane and maintained with 1-3% isoflurane (as needed) throughout the procedure at a flow rate of 1.5 litres/minute. The abdominal area of each animal was treated with depilatory cream, then sanitized with 3 alternating scrubs with iodine and alcohol. A rostral-caudal cut approximately 1.5 cm in length was made with sterile skin scissors, providing access to the intraperitoneal cavity. A cylindrical glass-encapsulated radiotelemetry probe (model ER-4000 E-Mitter, Mini Mitter, Bend, OR, USA) was then inserted. These probes measure 15.5 mm×6.5 mm and weigh approximately 1 gram. Incisions were closed (skin layer and muscle layer separately) using reverse cutting 5-0 Vicryl absorbable sutures for the muscle layer and 5-0 nylon suture material for the skin layer. Surgeries were carried out at least 7 days before initiation of experimental conditions, allowing time for incisions to heal and for animals to recover normal body weights. Following surgery, all implanted mice were individually housed in Plexiglas cages within the telemetry room for the duration of all experiments. Implanted transmitters produce activity- and temperature-modulated signals which are sent to a receiver (model ER-4000 Receiver, Mini Mitter Co., Inc.) underneath each cage. Following use, telemetry probes were removed from carcasses, wiped with alcohol swabs, and stored in the disinfectant solution until re-use.
At least 7 days after surgical implantation of radiotelemetry probes, mice in their individual home cages were placed atop a telemetry energizer/receiver, which powered probes and transmitted their data to an interfaced computer. Upon initiation of an experimental session, the computer collected two data updates from the probes at 5 min intervals: core temperature (in ° C.) on one channel, and locomotor counts (in arbitrary units, depending on the relative position of the probe atop the receiver) on the other. After at least 60 minutes of baseline data collection, mice were removed from their cages, injected with saline or a given dose of a specific drug, then returned to the home cage 24 hours of data collection.
Food and water were always freely available in the home cage. Mice were injected with ascending doses of a given drug, with at least 48 hours separating doses. Because there are few studies of drug effects in BTBR mice, the first drug dose tested occasionally elicited unexpectedly large locomotor effects in these animals. In these cases, smaller drug doses were tested next, after a washout period of at least one full day.

C57 mice [5] = assay: Social preference procedure: compartment entries (proxy for locomotor stimulant effects), C57
Procedure: as §1, §2, §3

[6] = 3.0 mg/kg IP, social novelty test

| Structure (SMILES) | compartment entries (locomotor stimulant effect) (BTBR mice [1]; [6]) | compartment entries (locomotor stimulant effect) (BTBR mice [1]; 5.6 mg/kg IP, social novelty test) | compartment entries (locomotor stimulant effect) (BTBR mice [1]; all tested doses IP) | novelty preference (time spent with the dummy mouse) (C57 mice [2]; 3.0 mg/kg IP) | novelty preference (time spent with the dummy mouse) (C57 mice [2]; 5.6 mg/kg IP) | social novelty preference (new stranger mouse vs familiar mouse) (BTBR mice [3]; all doses IP) | effect on core temperature (C57 mice [4]; 10 mg/kg IP) | rise in core temperature (C57 mice [4]; 56 mg/kg IP) | effect on core temperature (C57 mice [4]; various/increasing doses IP) | compartment entries (locomotor stimulant effect) (C57 mice [5]; [6]) | compartment entries (locomotor stimulant effect) (C57 mice [5]; various doses IP) | compartment entries (locomotor stimulant effect) (BTBR mice [1]; 3.0 mg/kg IP, social novelty test, 3 mg/kg) | compartment entries (locomotor stimulant effect) (BTBR mice [1]; 3.0 mg/kg IP, social novelty test, listed as S-MDMA, 3 mg/kg) | novelty preference (time spent with the dummy mouse) (C57 mice [2]; various doses IP) | social novelty preference (new stranger mouse vs familiar mouse) (BTBR mice [3]; 3.0 mg/kg IP) | jump in core temperature (C57 mice [4]; 18 mg/kg i.p) | effect on core temperature (C57 mice [4]; 30 mg/kg IP) | lethality during core temperature recording (C57 mice [4]; approximately 5-8 hrs after injection) |
| --- | --- | --- | --- | --- | --- | --- | --- | --- | --- | --- | --- | --- | --- | --- | --- | --- | --- | --- |
| CNC(C)Cc1ccc2c(c1)OCO2 (racemic) [racemic MDMA, 1-(1,3-benzodioxol-5-yl)-N-methylpropan-2-amine] | increased the number of entries | ~100 entries | dose-response stimulant effect | had no effects on locomotor activity (see FIG. 4) or novelty preference | elicited avoidance of the dummy mouse | exhibiting preferences for the stranger mouse | induced a drop in core temperature | ~2 degrees C. | gradual increase in core temperature | had no effects on locomotor activity | dose-response stimulant effect |  |  |  |  |  |  |  |
| CN[C@@H](C)Cc1ccc2c(c1)OCO2 [S(+)-MDMA, (2S)-1-(1,3-benzodioxol-5-yl)-N-methylpropan-2-amine] |  |  | dose-response stimulant effect |  |  |  | elicited an increase in temperature |  | dose-dependent increase in temperature |  | dose-response stimulant effect | roughly equivalent entries to 3.0 mg/kg racemic MDMA | increased the number of entries | no systematic effects on novelty preference | elicited a strong preference for the stranger mouse | greater than that observed by administration of 56 mg/kg i.p of Racemic MDMA | elicits significant hyperthermia | one animal experiencing profound hypothermia before expiring |
